# In paper PMC11648915, “Identification and development of TRPM4 antagonists to counteract neuronal excitotoxicity” (iScience, 2024):
# Several values for one entry are separate records, joined by “and”; a condition that tells them apart may be missing. Identical values can stand only once. Like-named read-outs stand apart in the source and are kept apart here.
# Legend:
# human TRPM4 = human TRPM4 (Homo sapiens, UniProt Q8TD43); assay: QPatch automated patch clamp on TRPM4-expressing HEK293 cells; format: cell-based; settings: hsTRPM4-expressing HEK293 cells; for EC50: read-out: TRPM4 EC50 (potentiator activity)
# Description: QPatchHTX, an automated electrophysiology platform, was used in single hole mode. One day before use human TRPM4- or TRPM5-expressing HEK293 cells were seeded in a T75 flask at a density of 53k cells per cm^2 and at passages < 23. […] The extracellular solution was (in mM): CaCl2 (7), MgCl2 (2), KCl (5), HEPES (10), NaCl (70), NMDG (70); pH 7.4 with NaOH. The intracellular solution was (in mM): HEPES (10), NMDG (100), NaCl (50), EGTA (20), MgCl2 (1), CaCl2 (21); pH 7.2 with HCl. […] This protocol was repeated every 7 seconds. […] FFA was used as reference compound and applied cumulatively with each concentration incubating at a minimum of 20 voltage protocol runs (140 seconds) with the current after addition of FFA being calculated as full block. […] Each compound was measured at least 3 time independently.
# human TRPM5 = target: T1, human TRPM5 (Homo sapiens, UniProt Q9NZQ8); assay: QPatch automated patch clamp on TRPM5-expressing HEK293 cells; format: cell-based; settings: hsTRPM5-expressing HEK293 cells
# T1 sequence (Q9NZQ8 1-1165): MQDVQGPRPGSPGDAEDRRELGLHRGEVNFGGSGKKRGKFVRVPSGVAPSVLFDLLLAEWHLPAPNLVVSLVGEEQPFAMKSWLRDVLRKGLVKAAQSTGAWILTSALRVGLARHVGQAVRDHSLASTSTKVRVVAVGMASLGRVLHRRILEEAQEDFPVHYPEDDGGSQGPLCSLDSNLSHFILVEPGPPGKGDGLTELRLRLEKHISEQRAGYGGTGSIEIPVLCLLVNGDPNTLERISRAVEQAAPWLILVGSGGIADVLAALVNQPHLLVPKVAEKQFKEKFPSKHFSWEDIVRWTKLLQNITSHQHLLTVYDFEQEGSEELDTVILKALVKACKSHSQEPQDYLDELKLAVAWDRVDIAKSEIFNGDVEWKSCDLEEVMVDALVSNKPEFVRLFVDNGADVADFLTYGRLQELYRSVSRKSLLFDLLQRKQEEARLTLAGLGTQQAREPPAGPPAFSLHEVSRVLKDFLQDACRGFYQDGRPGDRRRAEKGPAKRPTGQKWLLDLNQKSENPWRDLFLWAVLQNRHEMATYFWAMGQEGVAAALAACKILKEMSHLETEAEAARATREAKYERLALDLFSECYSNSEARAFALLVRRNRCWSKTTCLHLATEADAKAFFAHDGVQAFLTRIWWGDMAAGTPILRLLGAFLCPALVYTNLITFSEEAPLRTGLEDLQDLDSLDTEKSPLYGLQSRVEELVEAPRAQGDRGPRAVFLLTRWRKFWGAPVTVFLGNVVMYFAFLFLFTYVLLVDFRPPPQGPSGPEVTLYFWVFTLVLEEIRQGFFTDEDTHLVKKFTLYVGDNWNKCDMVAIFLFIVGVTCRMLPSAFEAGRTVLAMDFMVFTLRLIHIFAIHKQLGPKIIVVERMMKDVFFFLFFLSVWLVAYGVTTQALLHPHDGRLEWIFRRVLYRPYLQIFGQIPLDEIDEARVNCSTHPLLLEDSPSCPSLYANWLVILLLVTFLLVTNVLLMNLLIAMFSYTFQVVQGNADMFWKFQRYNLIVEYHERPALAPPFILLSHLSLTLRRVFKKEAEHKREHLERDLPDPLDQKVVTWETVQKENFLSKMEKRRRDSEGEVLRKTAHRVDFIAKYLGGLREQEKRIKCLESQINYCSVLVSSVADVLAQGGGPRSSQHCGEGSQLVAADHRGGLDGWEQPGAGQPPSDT
# Text: The counter screening phase involved the inclusion of hsTRPM5-expressing HEK293 cells, as closest homologue, and the parental HEK293 cell line to evaluate selectivity. […] Based on categorization of biological activity, mass spectrometry quality control, and aspects of medicinal chemistry, we prioritized 144 selective hsTRPM4 compounds. These compounds were then subjected to automated patch clamp electrophysiology measurements (QPatch[58]) to evaluate their activity profiles and IC50 values (Figures 1A, S1, and S2).
# QPatchHTX, an automated electrophysiology platform, was used in single hole mode. One day before use human TRPM4- or TRPM5-expressing HEK293 cells were seeded in a T75 flask at a density of 53k cells per cm^2 and at passages < 23. For QPatch assays, cells were harvested and re-suspended in SFM (Gibco, 11686029). The extracellular solution was (in mM): CaCl2 (7), MgCl2 (2), KCl (5), HEPES (10), NaCl (70), NMDG (70); pH 7.4 with NaOH. The intracellular solution was (in mM): HEPES (10), NMDG (100), NaCl (50), EGTA (20), MgCl2 (1), CaCl2 (21); pH 7.2 with HCl. After break-in, channels were consistently open and current through the channels could be observed at a voltage ramp from –100 mV to +100 mV over 500 ms. This protocol was repeated every 7 seconds. After saline and vehicle application, the channel was desensitized and residual current was used as baseline. FFA was used as reference compound and applied cumulatively with each concentration incubating at a minimum of 20 voltage protocol runs (140 seconds) with the current after addition of FFA being calculated as full block. […] Each compound was measured at least 3 time independently.
# [1] = In vivo pharmacokinetics after single i.p. or i.v. dose; settings: female, C57BL/6J, mouse
# Description: Next, to assess in vivo availability of the Series 1–3 compounds, we evaluated drug metabolism and pharmacokinetics (DMPK). We measured compound concentrations in plasma, heart, and brain at several time points after intraperitoneal (i.p.) or intravenous (i.v.) single-dose injections.
# Half-life and bioavailability were calculated by noncompartmental analysis using the R package PK[84] (v1.3-6).
# [2] = Microsome clearance (mouse); format: in vitro ADME; settings: mouse liver microsomes, 45 min, NADPH
# Description: (§1) Human or mouse liver microsomes were incubated with the test compound at a concentration of 1 μM for 45 min in the presence of cofactor (NADPH in excess). Samples were collected at various time points, and % remaining of test compound was determined using mass spectrometry (LC-MS/MS) to calculate hepatic clearance rate (L/h/kg).
# CYP2D6 = target: T2, CYP2D6 (Homo sapiens, UniProt P10635); assay: CYP inhibition assay 2D6; format: in vitro ADME
# T2 construct: purchased BD Gentest
# Description: (§2) The half-maximal inhibitory concentration (IC50) for cytochrome P450 (CYP) enzymes was determined using an in vitro enzyme inhibition assay. Recombinant CYP enzymes or human liver microsomes from BD Gentest, in 0.1 M phosphate buffer pH 7.4, containing native CYP enzymes were incubated with the test compound at various concentrations (1, 3, 10 and 30 μM) and containing 0.5% DMSO and 0.1% BSA final concentrations. 1 mM of NADPH cofactor was added and the reaction was started by a rapid increase of temperature until 37°C.
# CYP3A4 = target: T3, CYP3A4 (Homo sapiens, UniProt P08684); assay: CYP inhibition assay 3A4; format: in vitro ADME
# T3 construct: purchased BD Gentest
# Description: as §2
# [3] = target: potassium channel human Ether-a-go-go Related Gene (hERG) (Homo sapiens, UniProt Q12809); assay: hERG channel inhibition; format: cell-based
# Text: We next used in vitro assays to test absorption, distribution, metabolism, excretion and toxicity (ADMET) parameters for selected compounds. We assessed compound absorption using parallel artificial membrane permeability (PAMPA) and Caco-2 cell permeability assays (cut-off criterion >2 × 10^−6 cm s^−1). […] To assess potential off-target activity of our compounds that could be relevant for safety in humans, we conducted comprehensive in vitro pharmacology using the commercially available and widely used SafetyScreen44 interaction panel[60] covering eight protein families.
# [4] = Microsome clearance (human); format: in vitro ADME; settings: human liver microsomes, 45 min, NADPH, read-out: Microsomes (h) clearance (converted)
# Description: as §1
# [5] = Caco-2 permeability assay; format: in vitro ADME; settings: human, heading: Caco-2 perm., direction not given
# Description: Caco-2 permeability was evaluated using a cell-based assay with Caco-2 cells cultured on permeable membrane inserts. The test compound was added at 10 μM to the apical (donor) compartment, and samples were collected from the basolateral (receiver) compartment at 120 min. The test compound was also added at 10 μM to the basolateral (donor) compartment, and samples were collected from the apical (receiver) compartment at 120 min. The amount of the compound in both compartments was measured using mass spectrometry (LC-MS/MS). The permeability coefficient (Papp, nm/s) apical to basolateral and basolateral to apical, and an efflux ratio were calculated.
# [6] = Parallel Artificial Membrane Permeability Assay (PAMPA); format: in vitro ADME; settings: pH not given; for Papp at 16 h, 200 μM: PAMPA, read-out: PAMPA perm.
# Description: Parallel Artificial Membrane Permeability Assay (PAMPA) was performed using artificial lipid membrane layers to assess passive permeability of the test compound. Test compounds were diluted to 200 μM in system buffer at pH 5.0, 6.2 and 7.4. The solutions were filtered and 150 μL transferred to a High Sensitivity 96 well UV plate. This was analysed by UV as the reference plate. A 200 μL sample of the 200 μM solution was transferred to the ‘donor’ plate of the PAMPA pIon sandwich plate system. 200 μL of acceptor sink buffer was transferred to the ‘acceptor’ plate which had been previously treated with GIT-O lipid solution across the well filter. Donor and acceptor plates were sandwiched and kept in a humid environment at room temperature for 16 hours. On completion of the incubation the donor and acceptor plates were separated. 150 μL of solution was transferred from each of the donor and acceptor PAMPA sandwich plates into High Sensitivity 96 well UV plates for analysis by UV. at different time points. The concentration of the compound in the acceptor compartment was determined using mass spectrometry. The permeability coefficient (Papp) was calculated based on the rate of appearance of the compound in the acceptor compartment (nm/s).
# [7] = brain, ip, read-out: Brain half-life (converted)
# [8] = brain, iv, read-out: Brain half-life (converted)
# [9] = heart, ip, read-out: Heart half-life (converted)
# [10] = heart, iv, read-out: Heart half-life (converted)
# [11] = plasma, ip, read-out: Plasma half-life (converted)
# [12] = plasma, iv, read-out: Plasma half-life (converted)
# T2 sequence (P10635 whole entry): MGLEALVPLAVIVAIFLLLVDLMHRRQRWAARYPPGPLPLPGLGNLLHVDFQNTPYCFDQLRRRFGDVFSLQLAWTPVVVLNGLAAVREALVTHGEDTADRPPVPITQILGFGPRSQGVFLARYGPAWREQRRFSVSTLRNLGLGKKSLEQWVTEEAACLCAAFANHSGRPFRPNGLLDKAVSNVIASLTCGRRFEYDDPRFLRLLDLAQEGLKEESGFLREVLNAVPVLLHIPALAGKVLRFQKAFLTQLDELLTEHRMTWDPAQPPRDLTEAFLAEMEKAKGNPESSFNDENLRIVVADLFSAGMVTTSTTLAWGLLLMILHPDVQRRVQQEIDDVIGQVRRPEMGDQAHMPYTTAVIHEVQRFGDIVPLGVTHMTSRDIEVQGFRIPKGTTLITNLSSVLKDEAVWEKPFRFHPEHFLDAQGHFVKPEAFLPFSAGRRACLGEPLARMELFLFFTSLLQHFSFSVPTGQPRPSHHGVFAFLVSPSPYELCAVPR
# T3 sequence (P08684 whole entry): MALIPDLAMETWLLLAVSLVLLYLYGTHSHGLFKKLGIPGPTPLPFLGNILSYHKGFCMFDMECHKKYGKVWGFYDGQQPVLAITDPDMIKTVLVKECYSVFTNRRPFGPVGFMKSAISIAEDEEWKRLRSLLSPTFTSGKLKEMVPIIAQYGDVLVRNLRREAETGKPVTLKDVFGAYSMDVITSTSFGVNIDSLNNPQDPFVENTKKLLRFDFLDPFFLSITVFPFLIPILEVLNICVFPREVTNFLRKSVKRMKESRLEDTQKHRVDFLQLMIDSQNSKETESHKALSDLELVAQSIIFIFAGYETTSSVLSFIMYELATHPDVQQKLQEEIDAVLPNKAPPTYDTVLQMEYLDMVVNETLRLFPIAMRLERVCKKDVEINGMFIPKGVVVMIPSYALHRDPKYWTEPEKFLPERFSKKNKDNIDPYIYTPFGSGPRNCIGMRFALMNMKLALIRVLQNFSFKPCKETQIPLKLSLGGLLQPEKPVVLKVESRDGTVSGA
# Sequence of human TRPM4 (Q8TD43 whole entry): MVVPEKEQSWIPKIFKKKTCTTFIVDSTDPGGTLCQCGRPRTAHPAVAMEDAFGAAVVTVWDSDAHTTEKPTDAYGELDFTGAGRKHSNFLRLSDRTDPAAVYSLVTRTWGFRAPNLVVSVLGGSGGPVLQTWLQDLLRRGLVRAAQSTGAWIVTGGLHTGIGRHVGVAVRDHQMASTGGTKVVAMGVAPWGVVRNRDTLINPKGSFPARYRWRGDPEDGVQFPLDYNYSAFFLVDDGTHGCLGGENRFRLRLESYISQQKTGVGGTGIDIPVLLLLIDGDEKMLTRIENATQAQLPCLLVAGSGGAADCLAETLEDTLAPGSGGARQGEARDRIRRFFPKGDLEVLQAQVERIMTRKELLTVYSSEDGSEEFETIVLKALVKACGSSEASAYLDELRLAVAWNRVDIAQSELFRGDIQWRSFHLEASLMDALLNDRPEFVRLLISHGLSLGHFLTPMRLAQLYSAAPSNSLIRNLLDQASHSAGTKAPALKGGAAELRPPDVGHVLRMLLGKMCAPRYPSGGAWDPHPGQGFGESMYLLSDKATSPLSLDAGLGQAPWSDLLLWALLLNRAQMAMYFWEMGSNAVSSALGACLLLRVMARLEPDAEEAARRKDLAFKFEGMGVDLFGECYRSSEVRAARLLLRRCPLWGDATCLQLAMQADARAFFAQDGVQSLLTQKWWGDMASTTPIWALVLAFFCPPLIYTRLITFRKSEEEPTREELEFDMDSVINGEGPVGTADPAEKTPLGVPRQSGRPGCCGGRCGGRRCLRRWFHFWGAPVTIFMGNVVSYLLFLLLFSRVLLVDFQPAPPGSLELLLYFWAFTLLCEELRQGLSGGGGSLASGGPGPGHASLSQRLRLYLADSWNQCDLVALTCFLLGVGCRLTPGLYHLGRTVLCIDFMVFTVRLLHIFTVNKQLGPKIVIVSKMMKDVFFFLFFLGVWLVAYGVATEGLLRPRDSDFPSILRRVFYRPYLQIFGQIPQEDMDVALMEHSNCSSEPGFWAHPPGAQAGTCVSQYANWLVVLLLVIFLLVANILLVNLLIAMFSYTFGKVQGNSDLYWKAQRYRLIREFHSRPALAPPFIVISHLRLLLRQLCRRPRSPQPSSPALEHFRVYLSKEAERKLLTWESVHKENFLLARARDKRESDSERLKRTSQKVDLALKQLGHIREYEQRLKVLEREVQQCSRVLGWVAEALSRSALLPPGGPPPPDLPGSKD
# Sequence of potassium channel human Ether-a-go-go Related Gene (hERG) (Q12809 whole entry): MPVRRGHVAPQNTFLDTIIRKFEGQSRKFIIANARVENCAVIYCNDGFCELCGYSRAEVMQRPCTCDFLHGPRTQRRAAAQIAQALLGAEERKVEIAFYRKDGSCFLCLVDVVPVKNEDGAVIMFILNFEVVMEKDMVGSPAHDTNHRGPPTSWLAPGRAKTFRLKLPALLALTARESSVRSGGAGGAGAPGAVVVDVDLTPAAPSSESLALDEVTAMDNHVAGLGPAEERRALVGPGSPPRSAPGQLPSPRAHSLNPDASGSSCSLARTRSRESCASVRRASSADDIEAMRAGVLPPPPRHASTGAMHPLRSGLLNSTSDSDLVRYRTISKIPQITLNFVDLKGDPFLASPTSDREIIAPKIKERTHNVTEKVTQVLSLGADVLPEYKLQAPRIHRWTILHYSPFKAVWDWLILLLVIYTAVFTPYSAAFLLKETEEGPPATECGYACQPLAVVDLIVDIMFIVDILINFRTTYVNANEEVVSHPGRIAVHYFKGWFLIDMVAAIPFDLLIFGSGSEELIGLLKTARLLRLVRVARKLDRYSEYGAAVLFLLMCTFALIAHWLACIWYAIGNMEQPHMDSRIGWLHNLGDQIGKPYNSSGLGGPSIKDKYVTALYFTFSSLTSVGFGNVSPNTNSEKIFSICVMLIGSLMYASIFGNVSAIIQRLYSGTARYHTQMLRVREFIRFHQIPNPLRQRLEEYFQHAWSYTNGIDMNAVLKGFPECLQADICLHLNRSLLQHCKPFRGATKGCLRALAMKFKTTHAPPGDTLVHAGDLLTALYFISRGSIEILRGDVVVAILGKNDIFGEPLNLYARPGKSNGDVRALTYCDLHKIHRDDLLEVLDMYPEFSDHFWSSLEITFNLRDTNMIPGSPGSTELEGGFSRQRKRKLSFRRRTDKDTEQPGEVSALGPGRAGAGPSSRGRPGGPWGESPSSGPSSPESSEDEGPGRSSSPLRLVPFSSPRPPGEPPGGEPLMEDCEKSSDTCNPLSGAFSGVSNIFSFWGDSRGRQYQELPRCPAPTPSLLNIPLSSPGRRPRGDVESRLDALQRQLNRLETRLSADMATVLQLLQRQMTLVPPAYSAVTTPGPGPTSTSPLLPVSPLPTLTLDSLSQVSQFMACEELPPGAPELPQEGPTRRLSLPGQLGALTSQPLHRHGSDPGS
structure (smiles),measurement,setting,value
c1ccc(-c2ccccc2NCc2nc3ccccc3o2)cc1 [CMP009],IC50,human TRPM4,0.55 µM
O=c1cc(NC2CCCCCC2)nc2ccc(Cl)cn12 [CMP111],IC50,human TRPM4,0.17 µM and 0.11 µM
O=C(O)c1cc(Br)ccc1NS(=O)(=O)c1ccc(Cl)cc1 [CMP116],IC50,human TRPM5,> 30 µM
same,IC50,human TRPM4,1.87 µM
c1ccc(CSCc2cn3ccsc3n2)cc1 [CMP133],IC50,human TRPM4,0.28 µM
Cc1noc(-c2csc(S(=O)(=O)Nc3ccccc3C(F)(F)F)c2)c1C [CMP157],IC50,human TRPM4,0.36 µM
same,half-life,[1]; [7],3.9 h
same,half-life,[1]; [8],4.2 h
same,half-life,[1]; [9],3.3 h
same,half-life,[1]; [10],3.5 h
same,half-life,[1]; [11],2.9 h
same,half-life,[1]; [12],2.8 h
Nc1nnc(Cc2cccc(Br)c2)s1 [CMP225],EC50,human TRPM4,1.34 µM
Oc1ccccc1NCc1nc2ccccc2o1 [CMP311],EC50,human TRPM4,3.24 µM
COc1ccccc1-c1ccccc1NCc1nc2ccccc2o1 [CMP320],IC50,human TRPM4,0.82 µM
Cc1ccc(-c2ccccc2NCc2nc3ccccc3o2)s1 [CMP354],CLint scaled at 1 μM,[2],> 900 mL/min/kg
same,IC50,CYP2D6,> 50 µM
same,IC50,human TRPM5,> 10 µM
same,IC50,"CYP3A4; TDI, read-out: Cyp IC50 TDI 3A4",> 50 µM
same,IC50,CYP3A4; read-out: Cyp IC50 3A4,> 50 µM
same,half-life,[1]; [7],2.6 h
same,half-life,[1]; [8],1.6 h
same,half-life,[1]; [9],4.3 h
same,half-life,[1]; [10],4.8 h
same,half-life,[1]; [11],4.5 h
same,half-life,[1]; [12],1.5 h
same,IC50,[3],> 10 µM
same,CLint scaled at 1 μM,[4],460 mL/min/kg
Nc1cccc(-c2ccccc2NCc2nc3ccccc3o2)c1 [CMP465],CLint scaled at 1 μM,[2],393 mL/min/kg
same,IC50,CYP2D6,> 50 µM
same,"Papp at 120 min, 10 μM",[5],18.9 ×10⁻⁶ cm/s
same,IC50,human TRPM5,> 30 µM
same,"Papp at 16 h, 200 μM",[6],37.9 ×10⁻⁶ cm/s
same,CLint scaled at 1 μM,[4],216 mL/min/kg
CNc1ccc(-c2ccccc2NCc2nc3ccccc3o2)cc1 [CMP470],CLint scaled at 1 μM,[2],900 mL/min/kg
same,IC50,CYP2D6,> 50 µM
same,IC50,human TRPM5,> 30 µM
same,"Papp at 16 h, 200 μM",[6],22 ×10⁻⁶ cm/s
same,CLint scaled at 1 μM,[4],225 mL/min/kg
CCCNc1cccc(-c2ccccc2NCc2nc3ccccc3o2)c1 [CMP471],IC50,"CYP2D6; human, pH 7.4",> 50 µM
same,IC50,human TRPM5,> 30 µM
same,PAMPA perm.,[6],no detection
same,IC50,"CYP3A4; human, pH 7.4",> 50 µM
O=C(CCc1ccccc1)Nc1ccc(Cl)cc1C(=O)O [CMP493],IC50,human TRPM5,> 30 µM
same,IC50,human TRPM4,0.53 µM
O=C(CCc1ccccc1)Nc1ccc(C(F)(F)F)cc1C(=O)O [CMP502],IC50,human TRPM5,> 30 µM
same,IC50,human TRPM4,0.6 µM
O=C(CCc1ccccc1Cl)Nc1ccc(Br)cc1C(=O)O [CMP510],IC50,human TRPM5,19 µM
same,IC50,human TRPM4,0.72 µM
O=C(CCc1cccc(Cl)c1)Nc1ccc(Br)cc1C(=O)O [CMP512],IC50,human TRPM5,0.94 µM
same,IC50,human TRPM4,0.41 µM
